Measured values published in patent EP4592286A1, “MACROCYCLIC NITROGEN-CONTAINING CROWN ETHER COMPOUND AND USE THEREOF AS PROTEIN KINASE INHIBITOR” (Artivila Biopharma, priority 2022, dated 2024).

Columns and labels:
Assay type in all cases: biochemical
JAK1 = JAK1 (Homo sapiens, UniProt P23458); experiment: experiment of inhibiting kinase activity (Caliper mobility shift assay), JAK1; conditions: read-out: inhibition rate JAK1; for inhibition at 0.1 µM: at 100 nM
How it was run: (§1)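 IC50 values come from variable-slope fits of % conversion inhibition versus log compound concentration. Kinase and inhibitor were preincubated for 10 min at room temperature, and the reaction was then initiated with ATP and substrate and read by mobility shift.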

JAK2 = JAK2 (Homo sapiens, UniProt O60674); experiment: experiment of inhibiting kinase activity (Caliper mobility shift assay), JAK2; conditions: read-out: inhibition rate JAK2; for inhibition at 0.01 µM: at 10 nM; for inhibition at 0.1 µM: at 100 nM
Sequence of JAK2 (O60674 whole entry): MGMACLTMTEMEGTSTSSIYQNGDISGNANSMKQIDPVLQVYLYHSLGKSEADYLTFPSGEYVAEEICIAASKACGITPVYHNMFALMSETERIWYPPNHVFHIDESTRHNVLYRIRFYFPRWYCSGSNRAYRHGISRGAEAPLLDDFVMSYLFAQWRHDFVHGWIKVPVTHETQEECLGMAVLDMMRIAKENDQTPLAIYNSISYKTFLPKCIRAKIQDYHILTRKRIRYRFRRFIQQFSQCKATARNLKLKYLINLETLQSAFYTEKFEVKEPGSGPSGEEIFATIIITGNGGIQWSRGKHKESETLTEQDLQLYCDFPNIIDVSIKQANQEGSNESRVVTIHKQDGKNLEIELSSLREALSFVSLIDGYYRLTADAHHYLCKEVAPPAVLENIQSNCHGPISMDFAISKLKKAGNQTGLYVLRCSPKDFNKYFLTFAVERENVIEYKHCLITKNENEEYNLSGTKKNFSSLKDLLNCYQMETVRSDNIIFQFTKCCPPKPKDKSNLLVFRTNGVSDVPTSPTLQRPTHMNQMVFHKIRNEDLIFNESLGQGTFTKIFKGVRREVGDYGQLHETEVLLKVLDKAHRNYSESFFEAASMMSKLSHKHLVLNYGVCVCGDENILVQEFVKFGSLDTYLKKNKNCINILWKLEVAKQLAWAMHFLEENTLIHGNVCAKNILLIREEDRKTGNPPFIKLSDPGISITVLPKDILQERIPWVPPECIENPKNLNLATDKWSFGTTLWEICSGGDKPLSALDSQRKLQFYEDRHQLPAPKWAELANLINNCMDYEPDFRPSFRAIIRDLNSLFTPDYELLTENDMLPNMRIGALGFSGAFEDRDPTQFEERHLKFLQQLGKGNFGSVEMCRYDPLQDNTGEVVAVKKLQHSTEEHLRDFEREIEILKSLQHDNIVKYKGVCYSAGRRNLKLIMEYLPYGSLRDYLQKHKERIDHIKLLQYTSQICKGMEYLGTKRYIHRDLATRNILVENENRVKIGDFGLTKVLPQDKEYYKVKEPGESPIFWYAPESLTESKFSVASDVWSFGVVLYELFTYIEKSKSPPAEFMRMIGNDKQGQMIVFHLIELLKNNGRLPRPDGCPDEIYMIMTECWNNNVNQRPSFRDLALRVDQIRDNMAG
How it was run: as §1

JAK3 = molecular target: T1, JAK3 (Homo sapiens, UniProt P52333); experiment: experiment of inhibiting kinase activity (Caliper mobility shift assay), JAK3; conditions: read-out: inhibition rate JAK3; for inhibition at 0.01 µM: at 10 nM; for inhibition at 0.1 µM: at 100 nM
T1 sequence (P52333 1-1124): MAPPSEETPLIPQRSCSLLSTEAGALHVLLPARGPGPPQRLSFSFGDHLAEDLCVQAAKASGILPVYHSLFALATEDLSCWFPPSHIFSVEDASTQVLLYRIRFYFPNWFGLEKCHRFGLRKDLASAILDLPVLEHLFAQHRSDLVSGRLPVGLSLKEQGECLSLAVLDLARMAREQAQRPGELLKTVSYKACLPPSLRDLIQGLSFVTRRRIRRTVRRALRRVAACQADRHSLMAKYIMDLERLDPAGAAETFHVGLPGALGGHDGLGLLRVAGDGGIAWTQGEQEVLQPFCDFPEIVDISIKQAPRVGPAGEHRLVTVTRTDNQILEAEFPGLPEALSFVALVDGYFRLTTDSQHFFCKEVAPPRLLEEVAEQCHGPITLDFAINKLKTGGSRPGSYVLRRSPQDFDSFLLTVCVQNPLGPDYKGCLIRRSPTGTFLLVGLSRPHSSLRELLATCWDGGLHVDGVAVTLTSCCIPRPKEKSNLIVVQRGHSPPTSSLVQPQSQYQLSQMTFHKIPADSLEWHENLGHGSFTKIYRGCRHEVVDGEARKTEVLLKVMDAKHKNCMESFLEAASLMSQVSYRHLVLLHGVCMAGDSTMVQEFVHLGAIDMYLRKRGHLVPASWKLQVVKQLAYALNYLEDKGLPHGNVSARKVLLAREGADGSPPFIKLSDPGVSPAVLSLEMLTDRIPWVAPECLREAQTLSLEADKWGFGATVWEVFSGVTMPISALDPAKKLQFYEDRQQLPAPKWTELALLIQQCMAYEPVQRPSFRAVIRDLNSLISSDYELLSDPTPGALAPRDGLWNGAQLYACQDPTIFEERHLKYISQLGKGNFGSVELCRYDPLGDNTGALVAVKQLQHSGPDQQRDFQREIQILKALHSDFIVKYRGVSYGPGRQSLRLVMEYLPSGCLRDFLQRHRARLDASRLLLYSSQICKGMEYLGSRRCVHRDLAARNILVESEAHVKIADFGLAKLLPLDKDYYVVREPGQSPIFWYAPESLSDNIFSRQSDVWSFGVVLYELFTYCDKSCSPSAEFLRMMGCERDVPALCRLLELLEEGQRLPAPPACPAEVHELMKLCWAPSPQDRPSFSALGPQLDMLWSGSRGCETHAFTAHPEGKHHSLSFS
How it was run: as §1

TYK2 = TYK2 (Homo sapiens, UniProt P29597); experiment: experiment of inhibiting kinase activity, TYK2; conditions: read-out: inhibition rate TYK2; for inhibition at 0.1 µM: at 100 nM; for inhibition at 0.01 µM: at 10 nM
Experimental: (§2) The inhibition rates of tested compounds on JAK1, JAK2, JAK3, TYK2, CDK7, CDK9, EGFR (T790M) and LRRK2 kinases were measured. The test concentrations of the compounds were 10 nM and 100 nM, and the detection was performed by replicate wells. Alternatively, compounds were 3-fold serial diluted from 10 µM for 10 concentrations in replicate wells.

CDK7 = CDK7 (Homo sapiens, UniProt P50613); experiment: experiment of inhibiting kinase activity (Caliper mobility shift assay), CDK7; conditions: read-out: inhibition rate CDK7; for inhibition at 0.1 µM: at 100 nM; for inhibition at 0.01 µM: at 10 nM
How it was run: as §1

CDK9 = CDK9 (Homo sapiens, UniProt P50750); experiment: experiment of inhibiting kinase activity (Caliper mobility shift assay), CDK9; conditions: at 100 nM; read-out: inhibition rate CDK9
Experimental: as §2
The inhibitory effects of the compounds on JAK1, JAK2, JAK3, CDK7 and CDK9 kinases were detected by the method of Caliper mobility shift assay. 250 nL of the compound at 100-fold final concentration was transferred to a destination plate 384-well-plate by using a liquid handler Echo 550. A kinase solution at 2.5-fold final concentration was prepared with 1×kinase buffer. 10 µL of the kinase solution with 2.5-fold final concentration was added to compound wells and positive control wells; and 10 µL of 1×kinase buffer was added to negative control wells. The mixture was centrifuged at 1000 rpm for 30 seconds and then incubated at room temperature for 10 minutes. A mixed solution of ATP and kinase substrate at 5/3-fold final concentration was prepared with 1×kinase buffer, and 15 µL of the mixed solution of ATP and substrate at 5/3-fold final concentration was added to start the reaction. The 384-well plate was centrifuged at 1000 rpm for 30 seconds, shaked and mixed evenly, then incubated at room temperature for a corresponding time. 30 µL of stop solution was added to stop the kinase reaction, the mixture was centrifuged at 1000 rpm for 30 seconds, and shaked and mixed evenly. The conversion rate was read by Caliper EZ Reader. The conversion inhibition rate%=(average positive control conversion rate%-sample conversion rate%)/(average positive control conversion rate%-average negative control conversion rate%). Where negative control wells represent the conversion readings of the background well of kinase buffer; and positive control wells represent the conversion readings of wells without compound inhibition. With the log value of concentration as the x axis and the percentage inhibition rate as the y axis, the dose-response curve was fitted by the log (inhibitor) vs. response-variable slope of the analyzing softwar GraphPad Prism 5, and the IC50 values of each compound on enzyme activity were obtained. Calculation formula is as follows: y=Bottom+(Top-Bottom)/(1+10^((LogIC50-x)×hillslope)), where x is logarithm of inhibitor concentration; and Y is % inhibition rate.

LRRK2 [1] = molecular target: T2, LRRK2 (Homo sapiens, UniProt Q5S007); experiment: experiment of inhibiting kinase activity, LRRK2; conditions: for inhibition at 0.1 µM: at 100 nM; for inhibition at 0.1 µM / inhibition at 0.01 µM: read-out: inhibition rate LRRK2; for inhibition at 0.01 µM: at 10 nM; for IC50: kinase activity assay, Table 3
T2 sequence (Q5S007 whole entry): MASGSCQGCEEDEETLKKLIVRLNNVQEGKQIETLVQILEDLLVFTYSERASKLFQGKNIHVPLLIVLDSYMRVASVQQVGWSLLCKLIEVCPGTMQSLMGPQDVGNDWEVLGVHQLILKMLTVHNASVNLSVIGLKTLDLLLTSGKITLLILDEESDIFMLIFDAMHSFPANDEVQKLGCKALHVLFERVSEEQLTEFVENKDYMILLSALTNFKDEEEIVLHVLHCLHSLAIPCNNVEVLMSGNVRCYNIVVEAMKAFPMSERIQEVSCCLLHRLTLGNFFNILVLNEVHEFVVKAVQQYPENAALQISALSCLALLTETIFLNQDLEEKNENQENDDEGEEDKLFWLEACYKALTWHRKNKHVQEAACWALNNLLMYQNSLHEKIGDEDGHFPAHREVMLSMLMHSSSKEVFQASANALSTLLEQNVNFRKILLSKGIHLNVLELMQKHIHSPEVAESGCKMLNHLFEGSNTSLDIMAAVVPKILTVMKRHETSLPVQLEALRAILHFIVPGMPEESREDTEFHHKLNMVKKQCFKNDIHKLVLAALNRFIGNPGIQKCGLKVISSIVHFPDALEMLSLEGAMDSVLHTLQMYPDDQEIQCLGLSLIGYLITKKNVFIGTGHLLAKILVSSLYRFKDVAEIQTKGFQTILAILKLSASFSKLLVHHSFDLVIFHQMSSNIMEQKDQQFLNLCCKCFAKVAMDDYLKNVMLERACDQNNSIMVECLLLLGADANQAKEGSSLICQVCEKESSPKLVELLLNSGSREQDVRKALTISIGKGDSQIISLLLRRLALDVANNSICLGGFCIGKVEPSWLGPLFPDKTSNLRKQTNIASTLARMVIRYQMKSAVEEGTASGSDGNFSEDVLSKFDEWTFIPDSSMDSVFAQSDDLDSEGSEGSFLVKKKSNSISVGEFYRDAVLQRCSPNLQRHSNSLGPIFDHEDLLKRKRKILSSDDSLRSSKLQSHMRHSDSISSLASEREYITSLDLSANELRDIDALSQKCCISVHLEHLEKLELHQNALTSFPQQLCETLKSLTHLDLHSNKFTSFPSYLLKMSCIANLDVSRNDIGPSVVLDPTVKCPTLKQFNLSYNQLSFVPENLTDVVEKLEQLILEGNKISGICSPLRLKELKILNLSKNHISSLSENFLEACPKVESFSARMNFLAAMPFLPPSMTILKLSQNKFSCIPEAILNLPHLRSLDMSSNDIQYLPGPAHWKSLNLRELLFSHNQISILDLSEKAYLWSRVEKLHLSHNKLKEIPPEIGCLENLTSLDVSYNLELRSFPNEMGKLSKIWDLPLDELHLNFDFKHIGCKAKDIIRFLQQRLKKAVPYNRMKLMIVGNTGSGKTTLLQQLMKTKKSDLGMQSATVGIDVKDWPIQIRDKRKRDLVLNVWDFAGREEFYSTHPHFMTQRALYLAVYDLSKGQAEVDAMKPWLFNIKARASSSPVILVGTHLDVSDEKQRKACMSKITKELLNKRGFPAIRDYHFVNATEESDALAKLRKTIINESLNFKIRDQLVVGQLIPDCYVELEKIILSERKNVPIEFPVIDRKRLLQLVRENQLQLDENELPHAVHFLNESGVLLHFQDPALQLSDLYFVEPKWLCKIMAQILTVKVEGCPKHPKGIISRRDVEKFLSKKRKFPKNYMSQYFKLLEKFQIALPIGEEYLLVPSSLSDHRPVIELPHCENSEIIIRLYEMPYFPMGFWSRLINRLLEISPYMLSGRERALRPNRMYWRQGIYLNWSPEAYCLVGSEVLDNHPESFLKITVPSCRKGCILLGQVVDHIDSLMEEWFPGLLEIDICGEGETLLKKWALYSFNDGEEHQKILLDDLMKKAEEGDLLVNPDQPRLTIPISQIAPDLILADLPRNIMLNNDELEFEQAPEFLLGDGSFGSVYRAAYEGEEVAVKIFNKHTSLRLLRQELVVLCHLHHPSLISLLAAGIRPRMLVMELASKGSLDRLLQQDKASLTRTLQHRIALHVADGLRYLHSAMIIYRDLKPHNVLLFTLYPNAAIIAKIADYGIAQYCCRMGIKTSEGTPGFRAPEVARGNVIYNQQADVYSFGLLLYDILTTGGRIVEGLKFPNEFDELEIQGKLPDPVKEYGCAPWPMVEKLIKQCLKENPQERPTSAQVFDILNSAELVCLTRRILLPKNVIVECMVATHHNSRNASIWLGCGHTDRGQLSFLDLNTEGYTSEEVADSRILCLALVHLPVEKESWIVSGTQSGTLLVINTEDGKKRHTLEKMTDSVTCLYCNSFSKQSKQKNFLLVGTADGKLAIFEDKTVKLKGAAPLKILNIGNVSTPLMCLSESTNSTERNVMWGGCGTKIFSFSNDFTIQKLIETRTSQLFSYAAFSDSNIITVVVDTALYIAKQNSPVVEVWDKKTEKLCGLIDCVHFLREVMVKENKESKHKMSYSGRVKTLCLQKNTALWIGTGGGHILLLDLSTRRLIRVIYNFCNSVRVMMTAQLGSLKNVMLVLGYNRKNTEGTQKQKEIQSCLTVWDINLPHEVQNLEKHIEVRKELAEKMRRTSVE
Experimental: as §2

LRRK2 [2] = molecular target: T2, LRRK2; experiment: experiment of inhibiting LRRK2 kinase activity (ADP-Glo method); conditions: Table 4
Experimental: The inhibitory effect of the compounds on the activity of LRRK2 kinase was detected by ADP-Glo method. The diluted solutions of the compounds were transfered to a 384-well plate (784075, Greiner), the plate was sealed and centrifuged at a speed of 1000 g for 1 minute. A kinase solution at 2-fold final concentration was prepared with 1×kinase buffer, 2.5 µl of the kinase solution with 2-fold final concentration was added to the wells, the plate was centrifuged at 1000 g for 30 seconds, and left at room temperature for 10 minutes. A mixed solution of ATP and kinase substrate at 2-fold final concentration was prepared with 1×kinase buffer, and 2.5 µL of mixed solution of ATP and substrate at 2-fold final concentration was added to start the reaction. The plate was centrifuged at 1000 g for 30 seconds, sealed and left at room temperature for 2 hours. 4 µL of ADP-Glo reagent was added and incubated at room temperature for 40 minutes; 8 µL kinase detection reagent was added and incubated at room temperature for another 40 minutes. The luminescence signal value was detected on Envision 2104 microplate reader. The conversion inhibition rate%=100-(compound signal value-positive control signal value)/(blank control signal value-positive control signal value)×100.
The IC50 was calculated with GraphPad 6.0 and the dose-responsive curve of the compounds was plotted as follows: y=Bottom+(Top-Bottom)/(1+10^((logic50-x)×hillslope)), where x was logarithm of inhibitor concentration; and y was % inhibition rate.

Sequence of JAK1 (P23458 whole entry): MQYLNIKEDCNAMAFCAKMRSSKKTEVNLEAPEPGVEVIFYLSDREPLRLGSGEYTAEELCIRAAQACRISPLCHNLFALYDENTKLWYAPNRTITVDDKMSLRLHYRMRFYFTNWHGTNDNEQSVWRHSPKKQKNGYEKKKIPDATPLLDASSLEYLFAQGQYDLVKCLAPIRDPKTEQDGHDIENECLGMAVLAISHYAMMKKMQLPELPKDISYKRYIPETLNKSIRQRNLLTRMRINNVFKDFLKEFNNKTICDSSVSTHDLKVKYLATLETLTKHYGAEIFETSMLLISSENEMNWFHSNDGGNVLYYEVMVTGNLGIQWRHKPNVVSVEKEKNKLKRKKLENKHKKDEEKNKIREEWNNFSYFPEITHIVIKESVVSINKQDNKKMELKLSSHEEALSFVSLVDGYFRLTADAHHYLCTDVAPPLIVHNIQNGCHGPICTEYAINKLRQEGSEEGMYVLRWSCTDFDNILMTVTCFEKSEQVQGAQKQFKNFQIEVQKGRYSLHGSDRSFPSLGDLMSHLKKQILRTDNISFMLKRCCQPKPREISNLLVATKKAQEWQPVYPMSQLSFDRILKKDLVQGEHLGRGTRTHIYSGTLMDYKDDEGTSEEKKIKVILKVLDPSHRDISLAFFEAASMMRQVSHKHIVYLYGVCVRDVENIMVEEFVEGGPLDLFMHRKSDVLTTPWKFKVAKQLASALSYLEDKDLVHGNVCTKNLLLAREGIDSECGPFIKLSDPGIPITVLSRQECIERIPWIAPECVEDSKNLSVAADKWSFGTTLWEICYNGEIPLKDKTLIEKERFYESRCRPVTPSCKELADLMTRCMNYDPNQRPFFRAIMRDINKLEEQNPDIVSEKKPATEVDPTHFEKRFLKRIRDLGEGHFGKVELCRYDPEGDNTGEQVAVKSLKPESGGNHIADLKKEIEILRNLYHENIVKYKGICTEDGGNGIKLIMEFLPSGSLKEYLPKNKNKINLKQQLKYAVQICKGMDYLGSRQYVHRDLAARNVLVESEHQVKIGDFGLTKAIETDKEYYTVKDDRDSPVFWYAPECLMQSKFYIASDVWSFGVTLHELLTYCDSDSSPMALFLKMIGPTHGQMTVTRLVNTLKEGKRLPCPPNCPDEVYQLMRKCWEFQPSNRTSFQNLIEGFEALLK

Compound | inhibition at 0.1 µM (JAK1) | inhibition at 0.01 µM (JAK2) | inhibition at 0.1 µM (JAK2) | inhibition at 0.01 µM (JAK3) | inhibition at 0.1 µM (JAK3) | inhibition at 0.1 µM (TYK2) | inhibition at 0.1 µM (CDK7) | inhibition at 0.1 µM (CDK9) | inhibition at 0.1 µM (LRRK2 [1]) | IC50 (LRRK2 [2]) | further results
CN1CCOCCOc2cc(Nc3ncc(F)c(Nc4ccc5[nH]ccc5c4)n3)ccc2OCC1 [Example 30, 5-fluoro-N^4-(1H-indol-5-yl)-N^2-(7-methyl-2,3,6,7,8,9-hexahydro-5H-benzo[b][1,4,7]trioxa[10]azacyclododecan-13-yl)pyrimidin-2,4-diamine] | 25 to 39% | 40 to 79% | > 80% | 25 to 39% | > 80% | 40 to 79% | 40 to 79% | 40 to 79% | 25 to 39% | – | –
COc1ccccc1Nc1nc(Nc2ccc3c(c2)OCCN(C)CCO3)ncc1C(F)(F)F [Example 95, N^4-(2-methoxyphenyl)-N^2-(4-methyl-3,4,5,6-tetrahydro-2H-benzo[b][1,4,7]dioxazolin-9-yl)-5-(trifluoromethyl)pyrimidin-2,4-diamine] | – | – | – | – | – | – | – | – | – | < 0.1 µM | –
CN1CCOCCOc2cc(Nc3nc(Nc4ccccc4P(C)(C)=O)c4cc[nH]c4n3)ccc2OCC1 [Example 32, dimethyl(2-((2-((7-methyl-2,3,6,7,8,9-hexahydro-5H-benzo[b][1,4,7]trioxa[10]azacyclododecan-13-yl)amino)-7H-pyrrolo[2,3-d]pyrimidin-4-yl)amino)phenyl)phosphine oxide] | – | 40 to 79% | > 80% | > 80% | > 80% | 40 to 79% | 40 to 79% | 25 to 39% | > 80% | – | inhibition at 0.01 µM (TYK2): 25 to 39%; inhibition at 0.01 µM (LRRK2 [1]): > 80%; IC50 (LRRK2 [1]): < 0.05 µM
CC(C)S(=O)(=O)c1ccccc1Nc1nc(Nc2ccc3c(c2)OCCOCCN(C)CCO3)nc2[nH]ccc12 [Example 10, N^4-(2-(isopropylsulfonyl)phenyl)-N^2-(7-methyl-2,3,6,7,8,9-hexahydro-5H-benzo[b][1,4, 7]trioxa[10]azacyclododecan-13-yl)-7H-pyrrolo[2,3-d]pyrimidin-2,4-diamine] | 25 to 39% | > 80% | > 80% | 40 to 79% | > 80% | > 80% | > 80% | 40 to 79% | > 80% | – | inhibition at 0.01 µM (CDK7): 40 to 79%; inhibition at 0.01 µM (LRRK2 [1]): > 80%; IC50 (LRRK2 [1]): < 0.05 µM

Second part, led by results:

inhibition at 0.1 µM (JAK1) | inhibition at 0.01 µM (JAK2) | inhibition at 0.1 µM (JAK2) | inhibition at 0.01 µM (JAK3) | inhibition at 0.1 µM (JAK3) | inhibition at 0.1 µM (TYK2) | inhibition at 0.1 µM (CDK7) | inhibition at 0.1 µM (CDK9) | inhibition at 0.1 µM (LRRK2 [1]) | IC50 (LRRK2 [2]) | Compound | further results
– | – | – | – | – | – | – | – | – | 0.1 to 0.5 µM | CN1CCOCCOc2ccc(Nc3nc(O[C@H]4CC[C@@](C)(O)CC4)c4ccccc4n3)cc2OCC1 [Example 109, (1s,4s)-1-methyl-4-((2-((7-methyl-2,3,6,7,8,9-hexahydro-5H-benzo[b][1,4,7]trioxa[1 0]azacyclododecan-12-yl)amino)quinazolin-4-yl)oxy)cyclohexan-1-ol] | –
– | – | – | – | – | – | – | – | – | < 0.1 µM | Cc1cnc(Nc2ccc3c(c2)OCCN(C)CCOCCO3)nc1O[C@H]1CC[C@@](C)(O)CC1 [Example 105, (1s,4s)-1-methyl-4-((5-methyl-2-((7-methyl-2,3,6,7,8,9-hexahydro-5H-benzo[b][1,4, 7]trioxa[10]azacyclododecan-12-yl)amino)pyrimidin-4-yl)oxy)cyclohexan-1-ol] | –
– | – | – | – | – | – | – | – | – | 0.5 to 1 µM | CNc1cc(O[C@H]2CC[C@@](C)(O)CC2)nc(Nc2ccc3c(c2)OCCN(C)CCO3)n1 [Example 108, (1s,4s)-1-methyl-4-((2-((4-methyl-3,4,5,6-tetrahydro-2H-benzo[b][1,4,7]dioxazolin-9-yl)amino)-6-(methylamino)pyrimidin-4-yl)oxy)cyclohexan-1-ol] | –
– | – | – | – | – | – | – | – | – | < 0.1 µM | COCc1ccccc1Nc1nc(Nc2ccc3c(c2)OCCN(C)CCOCCO3)ncc1C(F)(F)F [Example 116, N^4-(2-(methoxymethyl)phenyl)-N^2-(7-methyl-2,3,6,7,8,9-hexahydro-5H-benzo[b][1,4,7]trioxa[10]azacyclododecan-12-yl)-5-(trifluoromethyl)pyrimidin-2,4-diamine] | –
40 to 79% | 40 to 79% | > 80% | 40 to 79% | > 80% | > 80% | > 80% | 25 to 39% | > 80% | – | CC(C)S(=O)(=O)c1ccccc1Nc1nc(Nc2ccc3c(c2)OCCOCCN(S(C)(=O)=O)CCO3)nc2[nH]ccc12 [Example 99, N^4-(2-(isopropylsulfonyl)phenyl)-N^2-(7-(methylsulfonyl)-2,3,6,7,8,9-hexahydro-5H-benzo[b][1,4,7]trioxa[10]azacyclododecan-13-yl)-7H-pyrrolo[2,3-d]pyrimidin-2,4-diamine] | inhibition at 0.01 µM (JAK1; at 10 nM): 25 to 39%; inhibition at 0.01 µM (TYK2): 25 to 39%; inhibition at 0.01 µM (CDK7): 40 to 79%
– | – | – | – | – | – | – | – | – | < 0.1 µM | CN1CCOCCOc2ccc(Nc3ncc(Cl)c(O[C@H]4CC[C@@](C)(O)CC4)n3)cc2OCC1 [Example 104, (1s,4s)-4-((5-chloro-2-((7-methyl-2,3,6,7,8,9-hexahydro-5H-benzo[b][1,4,7]trioxa[10]azacyclododecan-12-yl)amino)pyrimidin-4-yl)oxy)-1-methylcyclohexan-1-ol] | –
